Where two headings read alike, the source gives them in different places.
Assays:
[1] = Brain and plasma drug levels 1 h after i.p. administration (LC-MS/MS); type: in vivo; conditions: mice; for B/P, ratio between brain/plasma drug level: 1 h after i.p. 5 mg/Kg
Method: Test compounds underwent preliminary evaluations of brain penetration, in which 5 mg/Kg of each compound was administered intraperitoneally (i.p.) to a group of three normal mice; drug levels in brain and plasma were determined at a single time-point (1 h) by LC-MS/MS using pre-validated calibration curves. […] However, both esters appeared to have relatively short half-lives in plasma, as indicated by the limited amount of parent drug detected after 1 h from administration of the compounds. […] CNDR-51362 was selected for full PK analysis in which brain and plasma drug levels were determined at six time points (i.e., 30 min, 1 h, 2 h, 4 h, 8 h, and 16 h). The results from this experiment, illustrated in FIG. 6A, confirmed that the total B/P exposure ratio over 16 h is 1.6. […] Finally, in order to investigate the potential for ATPZ congeners to be orally administered, we evaluated brain and plasma level of CNDR-51362 and CNDR-51349 after oral administration of 5 mg/Kg.
Brain tissue was homogenized in 10 mM ammonium acetate, pH 5.7 (1:2; w/v) using a handheld sonic homogenizer. Plasma was obtained from blood that was collected into a 1.5 mL tube containing 0.5M EDTA solution and subjected to centrifugation for 10 min. at 4500 g at 4° C. Aliquots (50 μL) of brain homogenate or plasma were mixed with 0.2 mL of acetonitrile, centrifuged at 15,000 g, and the resulting supernatants were used for subsequent LC-MS/MS analysis. The LC-MS/MS system was comprised of an Aquity HPLC and a TQ MS that was controlled using MassLynx software (Waters Corporation, Milford, Mass., USA). Compounds were detected using multiple reaction monitoring (MRM) of their specific collision-induced ion transitions. Samples (5 μL) were separated on an Aquity BEH C18 column (1.7 μm, 2.1×50 mm) at 35° C. Operation was in positive electrospray ionization mode, with mobile phase A of 0.1% (v/v) formic acid, and B of either acetonitrile or methanol with 0.1% (v/v) formic acid at a flow rate of 0.6 mL/min using a gradient from 5% to 95% B over two min., followed by wash and re-equilibration steps. The MS was operated with a desolvation temperature of 450° C. and a source temperature of 150° C. Desolvation and source nitrogen gas flows were 900 L/hr and 50 L/hr, respectively. Source and MS/MS voltages were optimized for each compound using the MassLynx auto tune utility. Standard curves were generated for each compound from brain homogenate and plasma samples that had compound added at 4, 40, 400 and 4000 ng/mL and extracted as above. Peak areas were plotted against concentration and a 1/x weighted linear regression curve was used to quantify the tissue-derived samples using the average peak area from triplicate injections.

[2] = target: T1, K18PL tau (Homo sapiens, UniProt P10636, P618L); assay: Heparin-induced K18PL tau fibrillization assay monitored by ThT fluorescence; type: biochemical; conditions: for Emax: read-out: K18PL (ThT) maximal percent inhibition achieved in the assay; for inhibition at 80 µM: highest tested concentration (80 μM), read-out: Tau ThT Assay % Inhib.
T1 construct: (K18PL; amino acids 244-369); made in house
Method: Tau fibril formation reactions were performed essentially as described (Crowe, A., Ballatore, C., Hyde, E., Trojanowski, J. Q., and Lee, V. M. Y. (2007) Biochemical and Biophysical Research Communications 358, 1-6). K18PL (2 μl of a 30 μM stock that also contained 0.24 μM Alexa Red-labeled K18PL) was dispensed into black 1536-well plates (Grenier) using a solenoid-based dispenser. Following transfer of 23 nL of test compound or DMSO vehicle by a pin tool from compound library plates, 2 μl/well of 40 μM heparin in reagent buffer was dispensed and the plate was centrifuged for 15 s at 1000 rpm in a table-top centrifuge. The fibrillization reaction proceeded for 6 hours at 37° C. in a humidified incubator (Kalypsys).
K18PL fibril formation was quantified with a ThT assay as previously described (Crowe, A., Ballatore, C., Hyde, E., Trojanowski, J. Q., and Lee, V. M. Y. (2007) Biochemical and Biophysical Research Communications 358, 1-6). Briefly, 1 μl/well of 62.5 μM ThT (Sigma) in 100 mM glycine, pH 8.5 (12.5 μM final concentration) was dispensed into 1536-well plates after completion of the fibrillization reaction and incubated at room temperature for 1 hour. Plates were read on an Envision fluorescence plate reader with an excitation of 450 nm and an emission setting of 510 nm.
Compound effects on tau assembly were determined for the ThT and FP assays using the formula 1−(Fcompound− FDMSO)/( Fcontrol− FDMSO), where Fcontrol denotes the median plate fluorescence values (ThT assay) or mP values (FP assay) of the non-fibrillizing K18 KD control wells, FDMSO denotes the median value of the DMSO control wells, and Fcompound denotes the compound well values. The resulting values were multiplied by 100 to obtain the percent inhibition of tau fibril formation.
(§1) The solubility of test compounds in the sodium acetate buffer used for subsequent fibrillization reactions was determined by turbidimetric measurements. Compounds were then evaluated in a heparin-induced tau assembly assay, in which the fibrillization of the truncated K18 tau fragment (comprised of four MT-binding repeats) bearing the P301L mutation (K18PL) found in FTDP-17, was monitored by thioflavine-T (ThT) binding and fluorescence (FIG. 3A). (Crowe, A.; et al., Identification of aminothienopyridazine inhibitors of tau assembly by quantitative high-throughput screening. Biochemistry 2009, 48, 7732-45.) The inhibitory activity of test compounds was then confirmed with an orthogonal sedimentation assay in which compound-treated fibrillizing mixtures were centrifuged and quantitation of K18PL tau in the soluble and insoluble fraction was performed by densitometric analyses of SDS-PAGE (FIG. 3B). […] Thus, the tau fibrillization assay was repeated in which both DMSO- and compound-treated mixtures were initially centrifuged for 30 min. prior to incubation (i.e., at time zero of the fibrillization reaction) to remove any pelletable material.

[3] = target: T2, full-length tau (tau40) (Homo sapiens, UniProt P10636); assay: Tau40 fibrillization sedimentation assay; type: biochemical; conditions: SDS-PAGE of soluble and insoluble fractions after centrifugation; for Emax: read-out: Tau40 Sed. Assay, maximal percent inhibition of tau40 fibrillization
T2 construct: Full length tau (Tau40; amino acids 1-441); made in house
Method: The determination of compound-induced effects on the amount of tau that remains soluble upon centrifugation, and EM visualization of tau species following incubation with test compounds, were as previously described (Crowe, A., Ballatore, C., Hyde, E., Trojanowski, J. Q., and Lee, V. M. Y. (2007) Biochemical and Biophysical Research Communications 358, 1-6). […]

[4] = target: T1, K18PL tau; assay: K18PL tau centrifugation (sedimentation) assay, SDS-PAGE densitometry; type: biochemical; conditions: for Emax: read-out: K18PL Sed. Assay, maximal percent inhibition of K18PL fibrillization; for Tau Cent. Assay % Soluble: Table 4, K18PL tau centrifugation assay
Method: The determination of compound-induced effects on the amount of tau that remains soluble upon centrifugation, and EM visualization of tau species following incubation with test compounds, were as previously described (Crowe, A., Ballatore, C., Hyde, E., Trojanowski, J. Q., and Lee, V. M. Y. (2007) Biochemical and Biophysical Research Communications 358, 1-6).
as §1

[5] = Turbidimetric solubility in fibrillization buffer; type: physicochemical; conditions: 100 mM NaOAc pH 7.0 fibrillization buffer, 1% DMSO
Method: Compounds were serially diluted in DMSO to achieve a 2.5 fold dilution series from 20 mM down 8 points to […] on a 384-well master plate (Costar 3672). Aliquots (2 μL) were transferred to a clear 96-well assay plate (Fisher 12-565-501) containing 198 μL fibrillization buffer (100 mM NaOAc pH 7.0) for a 100-fold dilution (200 μM down to 0.3 μM). The plate was incubated with agitation for 2.5 h, and the absorbance at 550, 600, 650 and 700 nm was measured on a Spectramax M5 spectrophotometer. DMSO (1%) in fibrillization buffer served as a control that was subtracted from each data point. The absorbances were averaged and the concentration at which the average absorbance rose above 0.03 AU was an indication of insoluble compound, with solubility limits reported as the previous concentration in the dilution series.

[6] = Table 5, read-out: K18PL (ThT) IC50 value
[7] = SDS-PAGE of soluble and insoluble fractions after centrifugation
[8] = Table 4, logarithm of IC50, K18PL tau ThT fluorescence inhibition, read-out: Tau ThT Assay Log IC50 (converted)

T2 sequence (P10636 1-441 isoform P10636-8): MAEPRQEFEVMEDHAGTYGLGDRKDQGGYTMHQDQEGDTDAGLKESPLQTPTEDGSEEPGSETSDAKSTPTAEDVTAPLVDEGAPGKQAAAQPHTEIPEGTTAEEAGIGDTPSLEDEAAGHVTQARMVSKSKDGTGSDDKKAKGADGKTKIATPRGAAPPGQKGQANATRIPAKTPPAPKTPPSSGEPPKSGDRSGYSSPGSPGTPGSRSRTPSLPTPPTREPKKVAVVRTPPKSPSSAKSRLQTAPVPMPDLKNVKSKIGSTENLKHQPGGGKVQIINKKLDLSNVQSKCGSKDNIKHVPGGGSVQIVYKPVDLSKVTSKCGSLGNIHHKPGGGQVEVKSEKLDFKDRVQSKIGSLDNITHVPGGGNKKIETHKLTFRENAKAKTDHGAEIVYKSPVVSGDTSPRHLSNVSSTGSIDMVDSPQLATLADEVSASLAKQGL
T1 sequence (P10636 561-686 P618L): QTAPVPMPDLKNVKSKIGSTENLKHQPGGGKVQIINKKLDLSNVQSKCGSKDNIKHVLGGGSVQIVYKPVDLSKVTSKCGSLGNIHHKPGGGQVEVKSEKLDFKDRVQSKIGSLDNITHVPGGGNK

| Compound | Brain penetration ([1]; i.p. 5 mg/Kg, 1 h) | B/P, ratio between brain/plasma drug level [1] | IC50 [2, 6] | Emax ([2]; Table 5) | melting point | Tau40 Sed. Assay, maximal percent inhibition of tau40 fibrillization [3] | Emax [3] | Emax [4, 7] | Water Solubility [5] | K18PL Sed. Assay, maximal percent inhibition of K18PL fibrillization [4, 7] | inhibition at 80 µM ([2]; Table 4) | IC50 [2, 8] | Tau Cent. Assay % Soluble [4] |
| --- | --- | --- | --- | --- | --- | --- | --- | --- | --- | --- | --- | --- | --- |
| Nc1scc2c(C(=O)O)nn(-c3ccc(Cl)cc3)c(=O)c12 [CNDR-51348, 5-Amino-3-(4-chlorophenyl)-4-oxo-3,4-dihydrothieno[3,4-d]pyridazine-1-carboxylic acid] | lack of brain penetration | 0.023 | 1.6 µM | 87% | > 300 °C | 62% | 50 to 60% | 79% | – | – | – | – | – |
| CN(C)C(=O)c1nn(-c2ccc(Cl)cc2)c(=O)c2c(N)scc12 [CNDR-51361, 5-Amino-3-(4-chlorophenyl)-N,N-dimethyl-4-oxo-3,4-dihydrothieno[3,4-d]pyridazine-1-carboxamide] | – | 0.44 | 5.3 µM | 88% | – | 69% | 50 to 60% | – | 32 µM | 69% | – | – | – |
| CCNC(=O)c1nn(-c2ccc(Cl)cc2)c(=O)c2c(N)scc12 [CNDR-51365, 5-Amino-3-(4-chlorophenyl)-N-ethyl-4-oxo-3,4-dihydrothieno[3,4-d]pyridazine-1-carboxamide] | – | 1.8 | 5.6 µM | 91% | – | 57% | 50 to 60% | 94% | 32 µM | – | – | – | – |
| CC(C)OC(=O)c1nn(-c2ccc(Cl)cc2)c(=O)c2c(N)scc12 [CNDR-51371, Isopropyl 5-amino-3-(4-chlorophenyl)-4-oxo-3,4-dihydrothieno[3,4-d]pyridazine-1-carboxylate] | – | – | 1.5 µM | 81% | 118 to 120 °C | 61% | 50 to 60% | 44% | 32 µM | – | – | – | – |
| CCOC(=O)c1nn(-c2ccc(N=[N+]=[N-])cc2)c(=O)c2c(N)scc12 [CNDR-51412, Ethyl 5-amino-3-(4-azidophenyl)-4-oxo-3,4-dihydrothieno[3,4-d]pyridazine-1-carboxylate] | – | – | – | – | 169 to 170 °C | – | – | – | – | – | 80% | 6.31 µM | 51% |
| CCOC(=O)c1ccccc1-n1nc(C(=O)OCC)c2csc(N)c2c1=O [CNDR-51419, Ethyl 5-amino-3-(2-(ethoxycarbonyl)phenyl)-4-oxo-3,4-dihydrothieno[3,4-d]pyridazine-1-carboxylate] | – | – | – | – | 176 to 178 °C | – | – | – | – | – | 65% | 1.26 µM | 40% |

The remaining lines, values ahead:

| Brain penetration ([1]; i.p. 5 mg/Kg, 1 h) | B/P, ratio between brain/plasma drug level [1] | IC50 [2, 6] | Emax ([2]; Table 5) | melting point | Tau40 Sed. Assay, maximal percent inhibition of tau40 fibrillization [3] | Emax [3] | Emax [4, 7] | Water Solubility [5] | K18PL Sed. Assay, maximal percent inhibition of K18PL fibrillization [4, 7] | inhibition at 80 µM ([2]; Table 4) | IC50 [2, 8] | Tau Cent. Assay % Soluble [4] | Compound |
| --- | --- | --- | --- | --- | --- | --- | --- | --- | --- | --- | --- | --- | --- |
| – | – | – | – | 159 to 160 °C | – | – | – | – | – | 74% | 2 µM | 83% | CCOC(=O)c1cccc(-n2nc(C(=O)OCC)c3csc(N)c3c2=O)c1 [CNDR-51420, Ethyl 5-amino-3-(3-(ethoxycarbonyl)phenyl)-4-oxo-3,4-dihydrothieno[3,4-d]pyridazine-1-carboxylate] |
| – | – | – | – | 203 to 205 °C | – | – | – | – | – | 100% | 6.31 µM | 66% | CCOC(=O)c1nn(-c2ccccc2Br)c(=O)c2c(N)scc12 [CNDR-51421, Ethyl 5-amino-3-(2-bromophenyl)-4-oxo-3,4-dihydrothieno[3,4-d]pyridazine-1-carboxylate] |
| – | – | – | – | 163 to 165 °C | – | – | – | – | – | 87% | 1 µM | 67% | CCOC(=O)c1nn(-c2cccc(Br)c2)c(=O)c2c(N)scc12 [CNDR-51422, Ethyl 5-amino-3-(3-bromophenyl)-4-oxo-3,4-dihydrothieno[3,4-d]pyridazine-1-carboxylate] |
| – | – | – | – | 190 to 191 °C | – | – | – | – | – | 80% | 1.26 µM | 29% | CCOC(=O)c1nn(-c2cccc(C)c2)c(=O)c2c(N)scc12 [CNDR-51423, Ethyl 5-amino-4-oxo-3-(m-tolyl)-3,4-dihydrothieno[3,4-d]pyridazine-1-carboxylate] |

Reference: patent US20130029983A1, “AMINOTHIENOPYRIDAZINE INHIBITORS OF TAU ASSEMBLY” (priority 2009, published 2013)
